This is an account of results in US10166229B2, “Compounds and methods for the treatment of cancer” (The Board of Trustees of the University of Illinois, priority 2005, dated 2019).

Experiment [1] has as its target procaspase-3 mutant DAD (Homo sapiens, UniProt P42574, D180A). The experiment in a line: Activation of safety catch mutant procaspase-3 (DAD). In kind it is biochemical. Particulars: Asp-Ala-Asp mutant. From the text: (§1) Safety catch mutations. The DDD procaspase-3 safety catch (SEQ ID NO:1; SEQ ID NO:2; SEQ ID NO:9) was mutated to ADD (SEQ ID NO:3, SEQ ID NO:4, SEQ ID NO:10), DAD (SEQ ID NO:5, SEQ ID NO:6, SEQ ID NO:11) and DDA (SEQ ID NO:7, SEQ ID NO:8, SEQ ID NO:12) using the quickchange strategy with the following primers, gacagacagtggtgttgCGgatgacatggcgtgtcataaaatacc (SEQ ID NO:13), gacagacagtggtgttgatgCtgacatggcgtgtcataaaatacc (SEQ ID NO:14) and gacagacagtggtgttgatgatgCcatggcgtgtcataaaatacc (SEQ ID NO:15) respectively. See also FIG. 9 and FIG. 10. Mutated bases are underlined and capitalized. All mutant plasmids were sequenced to ensure proper sequence throughout the gene. All mutant plasm ids were expressed exactly as wild-type procaspase-3 as described above. […] The plate was then incubated for 12 hours at 37° C. 10 μL of a 2 mM solution of Ac-DEVD-pNA (SEQ ID NO: 28) in caspase assay buffer was then added to each well. The plate was read every 2 minutes at 405 nm for 2 hours in a Spectra Max Plus 384 well plate reader. The slope of the linear portion for each well was determined and the fold increase in activity for each mutant was calculated.

The target in experiment [2] is procaspase-3 mutant DDA (Homo sapiens, UniProt P42574, D181A). The experiment in a line: Activation of safety catch mutant procaspase-3 (DDA). In kind it is biochemical.
Sequence of procaspase-3 mutant DDA (P42574 29-175 limits assumed): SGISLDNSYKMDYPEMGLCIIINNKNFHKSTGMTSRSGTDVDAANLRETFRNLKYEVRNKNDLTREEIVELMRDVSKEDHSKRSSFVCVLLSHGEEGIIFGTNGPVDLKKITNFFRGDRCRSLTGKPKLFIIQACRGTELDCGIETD
Sequence of procaspase-3 mutant DDA (P42574 176-277 D181A limits assumed): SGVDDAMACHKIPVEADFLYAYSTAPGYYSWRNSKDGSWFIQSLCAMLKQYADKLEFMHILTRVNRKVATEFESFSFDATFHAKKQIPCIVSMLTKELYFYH
Source text: as §1

Experiment [3] addresses procaspase-3 mutant ADD. Briefly: Activation of safety catch mutant procaspase-3 (ADD). In kind it is biochemical, Homo sapiens.
Source text: as §1

Experiment [4] concerns NCI-H226 lung cancer cell line. Briefly: Cell death IC50 (MTS) in NCI-H226. In kind it is cell-based. The following applies: Homo sapiens, NCI-H226, 72 h, read-out: IC50 for cell death induction, NCI-H226.
The test system of experiment [5] is HL-60 cells. The experiment in a line: Cell death induction IC50 (MTS) in HL-60. In kind it is cell-based, human.
Experiment [6] relates to caspase-3 like activity in HL-60 cells. Briefly: Caspase-3 like activity in HL-60 cells. In kind it is cell-based, human. The following applies: HL-60, 100 μM PAC-1. As to the method:
In vivo determination of caspase-3 like activity. The amount of caspase-3 like protease activity was determined by the amount of Ac-DEVD-pNA (N-acetyl-ASP-Glu-Val-Asp-p-nitroanilide) (SEQ ID NO: 28) cleaved per minute by cell lysates. […] 50 μL of HL-60 cells at a concentration of 5×10^6 cells/mL were added to the plate and incubated for various times. After the incubation period, the plate was spun at 1000×g for 5 minutes to pellet the cells. The cells were then washed with 100 μL of PBS and resuspended in 150 μL of ice cold Caspase Assay Buffer. Each well was then sonicated to lyse the cells. 90 μL of cell lysate was transferred from each well into a new plate. Ac-DEVD-pNA (SEQ ID NO: 28) was added into each well to give a final concentration of 200 μM. […] The slope of the linear portion for each well was determined and the amount of Ac-DEVD-pNA (SEQ ID NO: 28) cleaved per minute was calculated.

The subject of experiment [7] is HL-60 cells. Briefly: Cell death inhibition by z-vad-fmk. In kind it is cell-based, human. As for the experimental part: Cell death inhibition by z-vad-fmk. 100 μL HL-60 cells at a concentration of 5×10^5 cells/mL were added to the wells of a 96-well plate. The cells were then incubated for 1 hour in the presence or absence of 100 μM z-vad-fmk, a cell-permeable pan caspase inhibitor. […] The plates were incubated at 37° C. for approximately 45 minutes until the colored product formed.

For experiment [8], the system named is cellular PARP activity in HL-60 cells. The experiment in a line: In vivo PARP activity assay (PARP cleavage) in HL-60. In kind it is cell-based, human. The following applies: HL-60, 100 μM PAC-1. As to the method: In vivo determination of PARP cleavage. The amount of PARP cleavage was determined by using an in vivo PARP activity assay. To accomplish this, 50 μL of media containing 200 μM NAD^+ was added to the control wells of a 96-well plate. […] 25 μL of HL-60 cells at a concentration of 5×10^6 cells/mL were then added to each well. The cells were incubated for various times and then spun at 1000×g for 5 minutes. The cell media was removed and replaced with 50 μL Lysing PARP Buffer (50 mM Tris, 10 mM MgCl2, pH 8.0, 1% Triton X-100) containing 25 mM H2O2. The plate was then incubated for 60 minutes at 37° C. To determine the amount of NAD^+ still present, 20 μL of 2 M KOH and 20 μL of a 20% (v/v) acetophenone (in ethanol) solution was added to each well of the 96-well plate. The plate was then incubated for 10 minutes at 4° C. 90 μL of an 88% (v/v) formic acid solution was added to each well of the 96-well plate. […] The plate was allowed to cool and then read on a Criterion Analyst AD (Molecular Devices, Sunnyvale, Calif.) with an excitation of 360 nm, an emission of 445 nm and a 400 nm cutoff dichroic mirror. The fluorophore was excited using a 1000 W continuous lamp for 1.6×10^5 μs with 5 reads performed per well. The number of moles of NAD^+ cleaved per minute was then calculated and the remaining PARP activity as compared to control wells was determined.

Experiment [9] has as its system mitochondrial membrane depolarization in HL-60 cells. The experiment in a line: Mitochondrial membrane potential (JC-9) in HL-60. In kind it is cell-based, human. As to the method:
The cells were incubated for various times, and the cells then were harvested by centrifugation. The cells were washed in PBS and resuspended in 1 mL of PBS. 10 μg of the JC-9 dye was added and the cells were incubated at room temperature for 10 minutes protected from light. The cells were then washed two times with PBS and brought up in 500 μL PBS. The fluorescent intensity of each cell was determined by flow cytometry at 525 nm (green channel) and 675 nm (red channel). 50,000 cells were analyzed in each experiment. The shift in the red channel was then used to determine the amount of mitochondrial membrane depolarization.

The test system of experiment [10] is NCI-H226 (lung cancer) cells injected i.v. The experiment in a line: NCI-H226 i.v. injection lung model, oral gavage. In kind it is in vivo, mice. The following applies: 100 mg/kg oral gavage days 1-4 and 7-11, 28 days.
Experiment [11] addresses procaspase-3 (Homo sapiens (Human), UniProt P42574). The experiment in a line: Western blot of in vitro procaspase-3 activation by DX compounds. In kind it is biochemical. Particulars: 50 micromolar compound, about 35 nanomolar procaspase-3, 8 hr. As for the experimental part: Certain compounds were also tested for the ability to effect in vitro activation of procaspase-3.

In experiment [12] the test system is HL-60 cells. Briefly: Apoptosis induction assay in HL-60 cells, 72 hrs (Table 6). In kind it is cell-based. The following applies: Homo sapiens. As to the method:
Compounds DX1-DX17 were tested using the HL-60 cell line for the ability to effect apoptosis, and IC50 values were determined. Activity levels of compounds from assays of 72 hrs duration with HL-60 cells are shown in Table 6 and along with structures in FIG. 12.

Entries after “also recorded” stand apart in the source; their conditions may differ.

Sequence of procaspase-3 mutant DAD (P42574 29-175 limits assumed): as the sequence (P42574 29-175 limits assumed) above
Sequence of procaspase-3 mutant DAD (P42574 176-277 D180A limits assumed): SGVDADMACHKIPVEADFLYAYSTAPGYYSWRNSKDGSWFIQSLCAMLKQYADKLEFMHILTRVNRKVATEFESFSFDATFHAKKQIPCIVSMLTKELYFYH
Sequence of procaspase-3 (P42574 whole entry): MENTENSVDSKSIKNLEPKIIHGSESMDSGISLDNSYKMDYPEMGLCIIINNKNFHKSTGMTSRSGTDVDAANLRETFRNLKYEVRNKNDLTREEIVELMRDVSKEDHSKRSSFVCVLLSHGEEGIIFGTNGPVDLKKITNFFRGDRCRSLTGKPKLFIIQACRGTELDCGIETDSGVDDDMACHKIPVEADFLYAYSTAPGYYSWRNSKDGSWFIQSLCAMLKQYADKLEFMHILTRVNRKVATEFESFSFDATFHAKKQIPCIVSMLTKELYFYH

As a reminder, the EC50 is the midpoint of the concentration-response curve. Read a low EC50 as a more potent agent. Broadly, the IC50 is the concentration that inhibits the measured activity by half. With `C=CCc1cccc(/C=N/NC(=O)CN2CCN(Cc3ccccc3)CC2)c1O` [PAC-1], the EC50 in experiment [1] was found to be 2.77 µM; in [2], 113 µM; in experiment [3] it was 131 µM. Besides, the IC50 is 0.35 µM in experiment [4]; 0.92 µM in [5] (Homo sapiens, HL-60, Table 3, read-out: IC50 (μM) for death induction in HL-60 cells); 2.8 µM in experiment [12]. Also, the “cell death induction in cancer cells in culture (in words)” value in experiment [5] is on record as “induce death in cancer cells”. Also, the “time to 50% activation of caspase-3-like activity” value in experiment [6] was “over 2 hours”. Moreover, in experiment [7], the “toxicity in the presence of caspase inhibitor z-VAD-fmk” value was “abolished”. Also, in experiment [8], the “cellular PARP activity / PARP-1 cleavage” value is “rapidly reduced; also recorded: induces cleavage of the caspase substrate PARP-1; also recorded: rapid decrease”. Further, the mitochondrial membrane depolarization result in experiment [9] was “causes mitochondrial membrane depolarization”. Besides, the “lung tumor mass, NCI-H226 i.v. injection model” value in [10] is listed as “clear difference; also recorded: almost no visible gray matter”. Besides, the “in vitro activation of procaspase-3 (Western blot) relative to control” value in experiment [11] is on record as “substantial activity levels”.
